Columns and labels:
Experiment in all cases: Weeding effect in post-emergence stage
Type in all cases: in vivo
Conditions in all cases: level of fresh weight growth control rate
Setaria viridis = test system: Setaria viridis
Summary of the method: (§1)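 Seeds are sown in soil-filled pots under 0.5-2 cm soil and grown 2 weeks in greenhouse. Plants at 2-3 leaves are sprayed with compound (acetone, Tween 80, 1.5 liter/ha methyl oleate EC, water) at 7.5 to 500 g/ha. Damage is rated 3 weeks later, averaging three repeats.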

Eleusine indica = test system: Eleusine indica
Summary of the method: as §1

Digitaria sanguinalis = test system: Digitaria sanguinalis
Summary of the method: as §1

Abutilon theophrasti = test system: Abutilon theophrasti
Summary of the method: as §1

Alopecurus japonicus = test system: Alopecurus japonicus
Summary of the method: as §1

Echinochloa crusgalli = test system: Echinochloa crusgalli
Summary of the method: as §1

SMILES	Weeding effect in post-emergence stage, Setaria viridis (Setaria viridis; Dose 15 g/ha)	Weeding effect in post-emergence stage, Eleusine indica (Eleusine indica; Dose 15 g/ha)	Weeding effect in post-emergence stage, Digitaria sanguinalis (Digitaria sanguinalis; Dose 15 g/ha)	Weeding effect in post-emergence stage, Abutilon theophrasti (Abutilon theophrasti; Dose 15 g/ha)	Weeding effect in post-emergence stage, Alopecurus japonicus (Alopecurus japonicus; Dose 15 g/ha)	Weeding effect in post-emergence stage, Echinochloa crusgalli (Echinochloa crusgalli; Dose 15 g/ha)	other results
COCC(O/N=C/c1cc(-n2c(=O)n(C)c(=S)n(C)c2=O)c(F)cc1Cl)C(=O)OC (stereo not drawn) [Compound 80]	5 (Level 5: growth control rate is above 85%)	5 (Level 5: growth control rate is above 85%)	5 (Level 5: growth control rate is above 85%)	5 (Level 5: growth control rate is above 85%)	5 (Level 5: growth control rate is above 85%)	5 (Level 5: growth control rate is above 85%)	–
COC(=O)C(C)O/N=C/c1cc(-n2c(=O)n(C)c(=S)n(C)c2=O)c(F)cc1Br (stereo not drawn) [Compound 83]	5 (Level 5: growth control rate is above 85%)	5 (Level 5: growth control rate is above 85%)	4 (Level 4: growth control rate is greater than or equal to 60% and less than 85%)	5 (Level 5: growth control rate is above 85%)	4 (Level 4: growth control rate is greater than or equal to 60% and less than 85%)	5 (Level 5: growth control rate is above 85%)	–
CCOC(=O)C(C)O/N=C/c1cc(-n2c(=O)n(C)c(=S)n(C)c2=O)c(F)cc1Br (stereo not drawn) [Compound 84]	5 (Level 5: growth control rate is above 85%)	5 (Level 5: growth control rate is above 85%)	4 (Level 4: growth control rate is greater than or equal to 60% and less than 85%)	5 (Level 5: growth control rate is above 85%)	4 (Level 4: growth control rate is greater than or equal to 60% and less than 85%)	5 (Level 5: growth control rate is above 85%)	–
COC(=O)C(C)(C)O/N=C/c1cc(-n2c(=O)n(C)c(=S)n(C)c2=O)c(F)cc1Cl [Compound 189]	5 (Level 5: growth control rate is above 85%)	5 (Level 5: growth control rate is above 85%)	4 (Level 4: growth control rate is greater than or equal to 60% and less than 85%)	5 (Level 5: growth control rate is above 85%)	4 (Level 4: growth control rate is greater than or equal to 60% and less than 85%)	4 (Level 4: growth control rate is greater than or equal to 60% and less than 85%)	–
COCCOC(=O)C(C)O/N=C/c1cc(-n2c(=O)cc(C(F)(F)F)n(C)c2=O)c(F)cc1Cl (stereo not drawn) [Compound 230]	5 (Level 5: growth control rate is above 85%)	5 (Level 5: growth control rate is above 85%)	5 (Level 5: growth control rate is above 85%)	5 (Level 5: growth control rate is above 85%)	5 (Level 5: growth control rate is above 85%)	5 (Level 5: growth control rate is above 85%)	–
CCOCCOC(=O)C(C)O/N=C/c1cc(-n2c(=O)cc(C(F)(F)F)n(C)c2=O)c(F)cc1Cl (stereo not drawn) [Compound 231]	5 (Level 5: growth control rate is above 85%)	5 (Level 5: growth control rate is above 85%)	5 (Level 5: growth control rate is above 85%)	5 (Level 5: growth control rate is above 85%)	5 (Level 5: growth control rate is above 85%)	5 (Level 5: growth control rate is above 85%)	–
CCCCOCCOC(=O)C(C)O/N=C/c1cc(-n2c(=O)cc(C(F)(F)F)n(C)c2=O)c(F)cc1Cl (stereo not drawn) [Compound 232]	5 (Level 5: growth control rate is above 85%)	5 (Level 5: growth control rate is above 85%)	5 (Level 5: growth control rate is above 85%)	5 (Level 5: growth control rate is above 85%)	5 (Level 5: growth control rate is above 85%)	5 (Level 5: growth control rate is above 85%)	–
CSCOC(=O)C(C)O/N=C/c1cc(-n2c(=O)cc(C(F)(F)F)n(C)c2=O)c(F)cc1Cl (stereo not drawn) [Compound 233]	5 (Level 5: growth control rate is above 85%)	5 (Level 5: growth control rate is above 85%)	5 (Level 5: growth control rate is above 85%)	5 (Level 5: growth control rate is above 85%)	5 (Level 5: growth control rate is above 85%)	5 (Level 5: growth control rate is above 85%)	–
CSCCOC(=O)C(C)O/N=C/c1cc(-n2c(=O)cc(C(F)(F)F)n(C)c2=O)c(F)cc1Cl (stereo not drawn) [Compound 234]	5 (Level 5: growth control rate is above 85%)	5 (Level 5: growth control rate is above 85%)	5 (Level 5: growth control rate is above 85%)	5 (Level 5: growth control rate is above 85%)	5 (Level 5: growth control rate is above 85%)	5 (Level 5: growth control rate is above 85%)	–
CCCOC(=O)OC(=O)C(C)O/N=C/c1cc(-n2c(=O)cc(C(F)(F)F)n(C)c2=O)c(F)cc1Cl (stereo not drawn) [Compound 236]	–	–	–	–	–	–	Weeding effect in post-emergence stage, Setaria viridis (Setaria viridis; Dose 60 g/ha): 5 (Level 5: growth control rate is above 85%); Weeding effect in post-emergence stage, Eleusine indica (Eleusine indica; Dose 60 g/ha): 5 (Level 5: growth control rate is above 85%); Weeding effect in post-emergence stage, Digitaria sanguinalis (Digitaria sanguinalis; Dose 60 g/ha): 5 (Level 5: growth control rate is above 85%); Weeding effect in post-emergence stage, Abutilon theophrasti (Abutilon theophrasti; Dose 60 g/ha): 5 (Level 5: growth control rate is above 85%); Weeding effect in post-emergence stage, Alopecurus japonicus (Alopecurus japonicus; Dose 60 g/ha): 5 (Level 5: growth control rate is above 85%); Weeding effect in post-emergence stage, Echinochloa crusgalli (Echinochloa crusgalli; Dose 60 g/ha): 5 (Level 5: growth control rate is above 85%)
CC(=O)COC(=O)C(C)O/N=C/c1cc(-n2c(=O)cc(C(F)(F)F)n(C)c2=O)c(F)cc1Cl (stereo not drawn) [Compound 238]	5 (Level 5: growth control rate is above 85%)	5 (Level 5: growth control rate is above 85%)	5 (Level 5: growth control rate is above 85%)	5 (Level 5: growth control rate is above 85%)	5 (Level 5: growth control rate is above 85%)	5 (Level 5: growth control rate is above 85%)	–
CCOC(=O)COC(=O)C(C)O/N=C/c1cc(-n2c(=O)cc(C(F)(F)F)n(C)c2=O)c(F)cc1Cl (stereo not drawn) [Compound 239]	5 (Level 5: growth control rate is above 85%)	5 (Level 5: growth control rate is above 85%)	5 (Level 5: growth control rate is above 85%)	5 (Level 5: growth control rate is above 85%)	5 (Level 5: growth control rate is above 85%)	5 (Level 5: growth control rate is above 85%)	–
COC(=O)CCOC(=O)C(C)O/N=C/c1cc(-n2c(=O)cc(C(F)(F)F)n(C)c2=O)c(F)cc1Cl (stereo not drawn) [Compound 240]	–	–	–	–	–	–	Weeding effect in post-emergence stage, Setaria viridis (Setaria viridis; Dose 30 g/ha): 5 (Level 5: growth control rate is above 85%); Weeding effect in post-emergence stage, Eleusine indica (Eleusine indica; Dose 30 g/ha): 5 (Level 5: growth control rate is above 85%); Weeding effect in post-emergence stage, Digitaria sanguinalis (Digitaria sanguinalis; Dose 30 g/ha): 5 (Level 5: growth control rate is above 85%); Weeding effect in post-emergence stage, Abutilon theophrasti (Abutilon theophrasti; Dose 30 g/ha): 5 (Level 5: growth control rate is above 85%); Weeding effect in post-emergence stage, Alopecurus japonicus (Alopecurus japonicus; Dose 30 g/ha): 5 (Level 5: growth control rate is above 85%); Weeding effect in post-emergence stage, Echinochloa crusgalli (Echinochloa crusgalli; Dose 30 g/ha): 5 (Level 5: growth control rate is above 85%)
COC(=O)C(C)OC(=O)C(C)O/N=C/c1cc(-n2c(=O)cc(C(F)(F)F)n(C)c2=O)c(F)cc1Cl (stereo not drawn) [Compound 241]	–	–	–	–	–	–	Weeding effect in post-emergence stage, Setaria viridis (Setaria viridis; Dose 30 g/ha): 5 (Level 5: growth control rate is above 85%); Weeding effect in post-emergence stage, Eleusine indica (Eleusine indica; Dose 30 g/ha): 5 (Level 5: growth control rate is above 85%); Weeding effect in post-emergence stage, Digitaria sanguinalis (Digitaria sanguinalis; Dose 30 g/ha): 5 (Level 5: growth control rate is above 85%); Weeding effect in post-emergence stage, Abutilon theophrasti (Abutilon theophrasti; Dose 30 g/ha): 5 (Level 5: growth control rate is above 85%); Weeding effect in post-emergence stage, Alopecurus japonicus (Alopecurus japonicus; Dose 30 g/ha): 5 (Level 5: growth control rate is above 85%); Weeding effect in post-emergence stage, Echinochloa crusgalli (Echinochloa crusgalli; Dose 30 g/ha): 5 (Level 5: growth control rate is above 85%)
COC(=O)C(C)(C)OC(=O)C(C)O/N=C/c1cc(-n2c(=O)cc(C(F)(F)F)n(C)c2=O)c(F)cc1Cl (stereo not drawn) [Compound 243]	5 (Level 5: growth control rate is above 85%)	5 (Level 5: growth control rate is above 85%)	5 (Level 5: growth control rate is above 85%)	5 (Level 5: growth control rate is above 85%)	5 (Level 5: growth control rate is above 85%)	5 (Level 5: growth control rate is above 85%)	–

From US20230111310A1, “CARBOXYLIC ACID DERIVATIVE-SUBSTITUTED IMINO ARYL COMPOUND, PREPARATION METHOD THEREFOR, HERBICIDAL COMPOSITION AND USE THEREOF” (Qingdao Kingagroot Chemical Compound Co., Ltd., priority 2020, published 2023)
